# Assay results taken from ChEMBL document CHEMBL5608230, “Systematical Mutational Analysis of FRATtide against Osteoclast Differentiation by Alanine Scanning” (ACS Med Chem Lett, 2024).
# Calls of active or inactive are those of the source. The calls are words filed in the database; no cut-off is given here.
# How the values were obtained:
# BMMC [1] = assay: Cytotoxicity against C57BL/6J mouse BMMC upto 20 uM incubated for 4 days by CCK-8 assay; assay type: toxicity, cell-based; conditions: 96 h, time 4 day
# BMMC [2] = assay: Inhibition of osteoclast differentiation in M-CSF/RANKL induced C57BL/6J mouse BMMC at 10 uM medium changed every other day and measured after 7 days by TRAP staining based assay; assay type: functional, cell-based; conditions: time 7.0 day
# BMMC [3] = assay: Inhibition of F-actin ring formation in RANKL induced C57BL/6J mouse BMMC at 5 to 10 uM medium changed every other day by Hoechst 33342 and TRITC-labeled phalloidin staining based assay; assay type: functional, cell-based; conditions: dose 5-10 µM
# BMMC [4] = assay: Inhibition of bone resorption in RANKL induced C57BL/6J mouse BMMC at 5 to 10 uM by Cytation-5 staining based assay; assay type: functional, cell-based; conditions: dose 5-10 µM
Substance,Activity (BMMC [1]),also measured
Ac-APHRLLQQLVLSGNLIKEAVRRLHSR-NH2,Non-Toxic,
Ac-DAHRLLQQLVLSGNLIKEAVRRLHSR-NH2,Non-Toxic,
Ac-DPARLLQQLVLSGNLIKEAVRRLHSR-NH2,Non-Toxic,
Ac-DPHALLQQLVLSGNLIKEAVRRLHSR-NH2,Non-Toxic,
Ac-DPHRALQQLVLSGNLIKEAVRRLHSR-NH2,Non-Toxic,
Ac-DPHRLAQQLVLSANLIKEAVARLHSR-NH2,Non-Toxic,
Ac-DPHRLAQQLVLSGNLIKEAVRRLHSR-NH2,Non-Toxic,inhibition (BMMC [2]): Active
Ac-DPHRLLAQLVLSGNLIKEAVRRLHSR-NH2,Non-Toxic,
Ac-DPHRLLQALVLSGNLIKEAVRRLHSR-NH2,Non-Toxic,
Ac-DPHRLLQQAVLSGNLIKEAVRRLHSR-NH2,Non-Toxic,
Ac-DPHRLLQQLALSGNLIKEAVRRLHSR-NH2,Non-Toxic,
Ac-DPHRLLQQLVASGNLIKEAVRRLHSR-NH2,Non-Toxic,
Ac-DPHRLLQQLVLAGNLIKEAVRRLHSR-NH2,Non-Toxic,
Ac-DPHRLLQQLVLSANLIKEAVRRLHSR-NH2,Non-Toxic,inhibition (BMMC [3]): Active; inhibition (BMMC [2]): Active; inhibition (BMMC [4]): Active
Ac-DPHRLLQQLVLSGALIKEAVRRLHSR-NH2,Non-Toxic,
Ac-DPHRLLQQLVLSGNAIKEAVRRLHSR-NH2,Non-Toxic,
Ac-DPHRLLQQLVLSGNLAKEAVRRLHSR-NH2,Non-Toxic,
Ac-DPHRLLQQLVLSGNLIAEAVRRLHSR-NH2,Non-Toxic,
Ac-DPHRLLQQLVLSGNLIKAAVRRLHSR-NH2,Non-Toxic,
Ac-DPHRLLQQLVLSGNLIKEAARRLHSR-NH2,Non-Toxic,
Ac-DPHRLLQQLVLSGNLIKEAVARLHSR-NH2,Non-Toxic,inhibition (BMMC [3]): Active; inhibition (BMMC [2]): Active; inhibition (BMMC [4]): Active
Ac-DPHRLLQQLVLSGNLIKEAVRALHSR-NH2,Non-Toxic,
Ac-DPHRLLQQLVLSGNLIKEAVRRAHSR-NH2,Non-Toxic,
Ac-DPHRLLQQLVLSGNLIKEAVRRLASR-NH2,Non-Toxic,
Ac-DPHRLLQQLVLSGNLIKEAVRRLHAR-NH2,Non-Toxic,
Ac-DPHRLLQQLVLSGNLIKEAVRRLHSA-NH2,Non-Toxic,
Ac-DPHRLLQQLVLSGNLIKEAVRRLHSR-NH2,Non-Toxic,inhibition (BMMC [2]): Active
